Measured values from ChEMBL document CHEMBL3808370, “Nortriketones: Antimicrobial Trimethylated Acylphloroglucinols from Ma̅nuka (Leptospermum scoparium)” (J Nat Prod, 2016).
pIC50: −log10 of the molar value. Converted amounts (≈) assume the structure as drawn. The source made the active and inactive calls. The rule behind the calls is not given here.

Key:
[1] = biological target: T1, 4-hydroxyphenylpyruvate dioxygenase (Arabidopsis thaliana) (UniProt P93836); experiment: Inhibition of recombinant Arabidopsis thaliana HPPD overexpressed in Escherichia coli JM105 cells at 100 uM using 4-HPP as substrate preincubated for 15 mins followed by substrate addition and subsequent incubation for 15 mins by HPLC analysis
T1 sequence (whole entry): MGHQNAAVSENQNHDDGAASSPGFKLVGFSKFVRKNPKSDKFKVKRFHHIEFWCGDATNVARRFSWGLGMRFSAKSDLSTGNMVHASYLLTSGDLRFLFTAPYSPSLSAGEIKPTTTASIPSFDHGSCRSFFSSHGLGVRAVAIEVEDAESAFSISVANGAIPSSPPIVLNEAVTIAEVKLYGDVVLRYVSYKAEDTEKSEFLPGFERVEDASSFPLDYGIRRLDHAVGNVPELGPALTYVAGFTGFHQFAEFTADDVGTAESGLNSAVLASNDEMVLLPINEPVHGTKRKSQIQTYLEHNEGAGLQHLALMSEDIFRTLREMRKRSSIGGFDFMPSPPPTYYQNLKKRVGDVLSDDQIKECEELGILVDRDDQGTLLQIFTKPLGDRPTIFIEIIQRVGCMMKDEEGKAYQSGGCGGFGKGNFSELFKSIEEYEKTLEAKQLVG

Enterococcus faecalis = experiment: Antibacterial activity against vancomycin-resistant Enterococcus faecalis incubated for 18 to 24 hrs by broth microdilution method; format: functional
Staphylococcus aureus = experiment: Antibacterial activity against methicillin-resistant Staphylococcus aureus by two-fold broth dilution method; format: functional
Escherichia coli = experiment: Antibacterial activity against Escherichia coli; format: functional
[2] = biological target: T2, 4-hydroxyphenylpyruvate dioxygenase (Arabidopsis thaliana, UniProt P93836); experiment: Inhibition of recombinant Arabidopsis thaliana HPPD overexpressed in Escherichia coli JM105 cells using 4-HPP as substrate preincubated for 15 mins followed by substrate addition and subsequent incubation for 15 mins by HPLC analysis; conditions: read-out: I50
T2 sequence (P93836 whole entry): T1 sequence (whole entry)

Row | inhibition [1] | SMILES | MIC (Enterococcus faecalis) | MIC (Staphylococcus aureus) | MIC (Escherichia coli) | pIC50 [2]
1 | inactive | CC1=C(O)C(C)(C)C(=O)C(C(=O)CC(C)C)=C1O | – | – | – | –
2 | inactive | CC1=C(O)C(C)(C)C(=O)C(C(=O)C(C)C)=C1O | – | – | – | –
3 | – | CC1(C)C(=O)C(C(=O)CCc2ccccc2)=C(O)C(C)(C)C1=O | 6 µg/mL (≈ 19.1 µM) | 6 µg/mL (≈ 19.1 µM) | > 512 µg/mL | 6.12

Row | SMILES | inhibition [1] | MIC (Enterococcus faecalis) | MIC (Staphylococcus aureus) | MIC (Escherichia coli) | pIC50 [2]
4 | CC1=C(O)C(C)(C)C(=O)C(C(=O)CCc2ccccc2)=C1O | inactive | 64 µg/mL (≈ 213 µM) | 64 µg/mL (≈ 213 µM) | > 512 µg/mL | –
